Measured values as given in patent US20100099640A1, “TISSUE DEGENERATION PROTECTION” (priority 2007, published 2010).

Columns and labels:
[1] = test system: anaesthetised dogs; conditions: 200 mg stevioside powder/kg peroral; cited from earlier work
[2] = test system: bacteria of the colon; conditions: cited from earlier work
[3] = Body weight of DKO mice during the 12-week treatment period; assay type: in vivo, mouse; conditions: stevioside 10 mg/kg orally for 12 weeks (12 to 24 weeks of age); placebo 43%
Protocol: (§1) Homozygous LDL-receptor-knockout mice (LDLR^(−/−)), heterozygous ob/+, and C57BL6 mice were purchased from Jackson Laboratory, Bar Harbor, Me. LDLR^(−/−) mice were backcrossed into a C57BL6 background to the 10th generation. To obtain DKO mice with combined leptin deficiency (ob/ob) and LDL-receptor deficiency, LDLR^(−/−) and ob/+ mice were crossed. All offspring were genotyped by polymerase chain reaction (PCR) techniques. All mice were housed at 22° C. on a fixed 12/12-hour light/dark cycle. Experimental procedures in animals were performed in accordance with protocols approved by the Institutional Animal Care and Research Advisory Committee. All mice were fed standard chow containing 4% fat (Pavan Service). Food intake was ≈5.7 g/d. Mice (about 50 g) were treated with stevioside (N=14; 10 mg/kg), steviol (N=9; 5 mg/kg) or placebo (N=17) for 12 weeks between 12 and 24 weeks of age. Stevioside (Molecular weight: 804) was dissolved in water (1 mg/ml) and 500 μl of the solution was administered orally. Steviol (Molecular weight: 318) was dissolved in water containing 6% NaHCO3 (1 mg/ml) and 250 μl of the solution was administered orally.

[4] = Analysis of steviol metabolites in 24 h human urine after oral stevioside; assay type: in vivo
Protocol: Urine Fractionation and Derivatisation of steviol containing fractions. The total 24 h urine fraction (between 1124 and 2494 mL) form human subject subjected to a steviol treatment (three days of oral stevioside administration (750 mg per day)) was run over an Amberlite XAD-2 column at about 30 mL/min. The column bed volume was 200 mL which is sufficient for the adsorption of all amphipathic molecules in 24 h urine. The columns were then rinsed with 1 L of distilled water and then eluted with 400 mL MeOH:Acetone (50:50, v/v). The eluate was divided into 4 equal fractions and the solvent was evaporated at reduced pressure at 50° C.
Fractions containing steviol and/or dihydroisosteviol used as internal standard were completely dried; the residues were taken up in dry acetone and derivatized to form the 7-methoxy-coumarinyl esters as described (Minne, V. et al. J. Agr. Food Chem., 2004, 52, 2445-2449). […] After evaporation of the solvent, the residue was dissolved in a known amount of MeOH and HPLC was done using a fluorescence detector (λexc.: 321 nm, λem.: 391 nm) (Minne, V. et al. J. Agr. Food Chem., 2004, 52, 2445-2449). […]
Isolation of larger amounts of steviol glucuronide. […] Samples of each fraction were analysed by TLC using ethyl acetate:ethanol:water (80:30:20) as solvent and compared with steviol glucuronide as a reference compound. […]

[5] = test system: atherosclerotic plaques of DKO mice; experiment: Atherosclerosis: morphometric and immunohistochemical analysis of aortic root cross sections of DKO mice; assay type: in vivo, mouse; conditions: stevioside 10 mg/kg or steviol 5 mg/kg orally, 12 weeks
Protocol: as §1
The extent of atherosclerosis was determined by analysis of cross sections from the aortic root. Approximately ten 7-μm frozen sections per staining per animal were used for morphometric and immunohistochemical analysis. Total plaque areas were measured on hematoxylin and eosin stained sections. Lipids were stained with oil-red O, and macrophage areas were stained with an antibody against mouse Mac-3 antigen (Pharmingen), and oxidized LDL with the monoclonal antibody 4E6. Blinded analysis of positive immunostained sections was performed with the Quantimet600 image analyzer (Leica).

In the case of `C=C1C[C@@]23CC[C@H]4C(C)(CCC[C@@]4(C)C(=O)O[C@@H]4O[C@H](CO)C(O)[C@H](O)C4O)[C@@H]2CCC1(OC1O[C@H](CO)C(O)C(O)C1OC1O[C@H](CO)C(O)[C@H](O)C1O)C3` (stereo in doubt) [stevioside, Kaur-16-en-18-oic acid, 13-[(2-O-b-D-glucopyranosyl-b-D-glucopyranosyl)oxy]-, b-D-glucopyranosyl ester, (4a)-], the blood pressure [1] is listed as “short-term blood pressure reduction”, the “degradation by bacteria of the colon” value [2] is listed as “degraded” and the “increase of weight during the treatment period” value [3] is listed as 41%. The “free steviol in urine” value ([4]; after oral stevioside, human urine) was “no free steviol can be detected”, the “metabolite detected in the collected urine” value ([4]; three days of oral stevioside (750 mg per day), 24 h urine) was “steviol glucuronide was isolated as the only metabolite detected” and the “lipid deposition in plaques” value [5] was “reducing”. The “macrophage deposition in plaques” value [5] was “reducing”, the “oxLDL deposition in plaques” value [5] was “reducing” and the plaque volume [5] was “lowered”. The “smooth muscle cell (SMC)-to-macrophage ratio (proxy for plaque stability)” value [5] was “increased”.
